Consider 6 compounds from patent US9757391B2 (priority 2012, dated 2017).

“Also recorded” adds a separate entry of the source.

Data set [1] deals with morphine tolerance. The conditions noted are these: rats, cited from earlier work.
Data set [2] relates to morphine tolerant rats. The conditions noted are these: cited from earlier work.
Data set [3] relates to mouse. Kind of data set: General pharmacological screen: depression of behaviour. The following applies: 300 mg/kg po. Type of data set: in vivo. As to the method:
(§1) A general pharmacological screen was performed on the neuroactive steroid alphadolone.

Data set [4] has as its system mouse. Briefly: General pharmacological screen: maximum tolerated dose, autonomic signs. In kind it is in vivo. The following applies: 300 mg/kg po. As for the experimental part:
as §1

For data set [5], the system named is histotoxic hypoxia. Type of data set: in vivo. The conditions noted are these: mouse, 100 mg/kg po; ≧50% indicates significant cerebral protection.
The subject of data set [6] is morphine tolerance. The following applies: in vivo; cited from earlier work.

`CN1CC[C@]23c4c5ccc(O)c4O[C@H]2[C@@H](O)C=C[C@H]3[C@H]1C5` [M-IR, morphine]: in data set [1] (M-IR 6.25 mg/kg ip, after M-SR 125 mg/kg/day sc with vehicle emulsion, mean±SEM, P<0.001), the “tail flick latency response to M-IR, after M-SR treatment” value was 20.3±4.8 % MPE. Besides, the “tail flick latency response to M-IR, pre treatment” value in data set [1] (M-IR 6.25 mg/kg ip, before M-SR treatment, mean±SEM) is recorded as 89.6±2.5 % MPE.
For etanercept, in data set [2], the “microglia activation and proinflammatory cytokine production” value is on record as “inhibited”; the morphine tolerance entry was “reversed the morphine tolerance”.
In the case of `C[C@]12CC[C@@H](O)C[C@@H]1CC[C@H]1[C@@H]3CC[C@H](C(=O)CO)[C@@]3(C)CC(=O)[C@@H]12` [alphadolone], the depression of behaviour entry in data set [3] is “no sedation”. In data set [4], the “maximum tolerated dose autonomic signs: body temperature” value is recorded as “temperature elevation”. Further, the “hypoxia KCN test result” value in data set [5] is recorded as “result = 50; %”. Moreover, the “occurrence of morphine tolerance (TFL)” value in data set [1] (alphadolone emulsion 250 mg/kg sc co-administered with M-SR) was “prevented the occurrence of morphine tolerance; also recorded: no significant tolerance occurred”. In addition, the sedation result in data set [1] (alphadolone emulsion 250 mg/kg sc with M-SR) is listed as “did not cause sedation; also recorded: caused no sedation”.
`C[C@]12CC[C@H](O)CC1=CC[C@@H]1[C@@H]2CC[C@]2(C)C(=O)CC[C@@H]12` [dehydrepiandrsterone]: the “prevention of morphine tolerance” value in data set [6] is reported as “do prevent morphine tolerance”.
For `CC(=O)[C@H]1CC[C@H]2[C@@H]3CC=C4C[C@@H](O)CC[C@]4(C)[C@H]3CC[C@]12C` [pregnenolone], the “prevention of morphine tolerance” value in data set [6] is recorded as “do prevent morphine tolerance”.
Consider `CC(=O)[C@H]1CC[C@H]2[C@@H]3CC[C@H]4C[C@H](O)CC[C@]4(C)[C@H]3CC[C@]12C` [allopregnanolone], for which the “prevention of morphine tolerance” value in data set [6] is given as “do prevent morphine tolerance”.
